Measurements reported in patent publication US20250281392A1, “TOPICAL DELIVERY OF EPINEPHRINE AND PRODRUG COMPOSITIONS” (Aquestive Therapeutics, Inc., priority 2024, published 2025).
Blank lines part the entries; values can stand above or below the compound they belong to.

Experiments:
[1] = design: species or system Sinclair Nanopigs; conditions: in vivo
Procedure: A study was conducted to evaluate the systemic pharmacokinetic characteristics of Dipivefrin Topical Gel when administered once by topical application to intact, abraded, and wounded skin of Sinclair Nanopigs™. The study design was as follows. Animals were food fasted for at least 8 hours. Animals were monitored until fully recovered. Anesthesia procedures were documented and retained in the study data. The dose formulations were administered to appropriate animals by topical application on the dorsal surface (Dose Site #1) once on Day 1. The dose site was and/or shaved and marked at least one day prior to Day 1. At least the four corners of the dose sites will be marked with indelible ink based on the appropriate dose area. At least the four corners of the tape stripping area were marked with indelible ink for Group 2 and 3 animals. The site for Group 2 and 3 animals was gently abraded via tape stripping (conducted 50 times). All animals will have a uniform topical application using a gloved hand and/or spatula to rub the entire dose amount throughout the total dose area (for 1 minute). Topical application to the dose area for Group 4 animals will include application of the dose amount over the created wounds. If an animal is observed to have test material remaining following the application time, the observation will be documented. Dose formulations will be allowed to equilibrate at ambient temperature for at least 15 minutes prior to and continuously throughout dose administration Prior to dermal (topical) application on Day 1, the dose site for Group 1 to 3 animals were wiped clean with water-moistened gauze or paper towels then wiped dry with dry gauze or paper towels. Following washing and drying, […]. On Day 1, Group 4 animals: The animal backs were prepared for wound creation by performing a surgical scrub. Two (2) wounds were created on the dorsal surface of each Group 4 animal within a 7×7 cm area using an 8 mm punch biopsy. Steps were taken to ensure the area designated for wound creation is within the total dose area (8×8 cm). […]

[2] = Ex vivo permeation and flux of dipivefrin topical gel through buccal tissue; format: in vitro ADME, porcine; conditions: through 24 hours
Procedure: (§1) The claimed topical compositions were tested for permeation using both porcine ear and buccal tissue.
(§2) The tested tissues were Porcine Ear vs. Buccal Tissue through 24 hours.

[3] = Non-clinical pharmacokinetic study of 2.5% topical gel in minipigs; format: in vivo
Procedure: A non-clinical pharmacokinetic study was also conducted in minipigs. In this study, a 2.5% topical gel was applied at 30 mg/cm2 in 7, 10 and 12% body surface area (BSA) coverage respectively, and data was collected over 6 hours.

[4] = male, Wistar Han, rat, in vivo
Procedure: A study was conducted to evaluate the pharmacokinetics of the claimed composition in a rat model. The purpose of this study was to enable selection of dosing regimen to be used on Passive Cutaneous Anaphylaxis (PCA) model in mammalian subjects. In this study, 15 male rats were studied to model the effects of the claimed composition on passive cutaneous anaphylaxis with a topical route of exposure. […] The Wistar Han rat was chosen as the animal model for this study as it is an appropriate model to study the effects of drug candidates on passive cutaneous anaphylaxis, based on available literature.
In this study, the pharmaceutical composition was applied on the dorsal side of both ears for groups 2-5 and only on the left ear of group 1 using a gloved finger until absorbed. The topical gel was applied as an even layer with no rubbing required.
The dark gray bar represents concentration in ng/g after 30 minutes of exposure for both 1% (low dose) and 2.5% (high dose) compositions. The light gray bar represents concentration in ng/g after 60 minutes of exposure for both 1% (low dose) and 2.5% (high dose) compositions.

[5] = tested on: NK cells; assay: NK activation assay, CD25+CD69+ NK cells by flow cytometry; format: cell-based, human; conditions: for % inactivation relative to vehicle: human NK % CD25+CD69+ cells
Procedure: IC50 is a measurement of how much of a drug is needed to inhibit a biological process by half.
Peripheral blood mononuclear cells (PBMC) were isolated over a density gradient from six donor buffy coats and CD56+NK were separated using magnetic selection. Purity of sorted NIK cells was assessed by flow cytometry using CD56 as a marker of NK cells.
Following magnetic isolation, NK cells were seeded at 5×10^5 NK cells per well in a 48 well plate alongside NK activation beads (prepared as per manufacturer's protocol) at a 1:1 bead to cell ratio, IL-2 (final concentration 500 IU/ml) and either prodrug/epinephrine at 5 different doses (see section 3.6 below for further details), cortisol/dexamethasone (positive controls) or vehicle (media only). NK cells were cultured with the NK activation beads for two days at 37° C. in the presence of 5% CO2. After two days, supernatants were collected from each condition for future TR-FRET analysis (AQV-24-001_AM-1 only, see below) and the remaining cells from each condition were assessed for expression of surface markers CD25, CD69 and for cell viability using eBioscience™ Fixable Viability Dye. Samples were then treated with eBioscience Intracellular Fixation & Permeabilization Buffer Set to allow staining of intracellular granzyme B. Marker expression was determined by flow cytometry and appropriate “Fluorescence-Minus-One controls” controls were used. Flow cytometry data was analysed using FlowJo analysis software and data was graphed using Graph Pad Prism.
The study was performed in: 3 donors Each experimental condition was tested in: singlicate. For Flow cytometry, viability was measured and cells were phenotyped for NK cell activation (CD25, CD69, granzyme B). Raw and analysed data are provided.
Each experimental condition was tested in: singlicate. For Flow cytometry, viability was measured and cells were phenotyped for NK cell activation (CD25, CD69, granzyme B). Raw and analysed data are provided. Supernatants were harvested in triplicate per condition and stored until further analysis of IFNγ content by TR-FRET. Data was analysed and graphed. Raw and analysed data are provided. […]

[6] = In vitro permeation and flux of dipivefrin topical gel through CelluSep; format: in vitro ADME; conditions: 5.0% dipivefrin (w/w) topical gel
Procedure: Both in vitro and ex vivo permeation was measured for the following formulation. […] Rapid release from the topical gel matrix was observed. Referring to FIG. 4A, the amount permeated (in ug) was measured as a function of time (in minutes). […] The flux (ug/cm^2*min) was measured as a function of time (minutes).

[7] = human, in vivo
Procedure: A two-part clinical study was conducted for alopecia areata (AA) patients. AA is an autoimmune disease leading to hair loss on the scalp, face, and in more severe cases, other body areas. The mechanisms leading to AA are multifactorial, including an autoimmune response that results in the loss of hair follicle immune privilege. The patient will be given treatment based on disease severity (>50% involvement—JAK inhibitors; <50% involvement—corticosteroids).
In Part 1, single ascending doses of a single formulation of AQST-108 were given. […] The 1.0% AQST-108 strength was down-selected to Part 2.
In Part 2, a single dose of 1 of 3 formulations of 1.0% of AQST-108 was given.

[8] = Ex vivo permeation and flux of epinephrine prodrug topical gels through porcine ear tissue; format: in vitro ADME; conditions: topical gel, 2.5% to 10% API loading, 24 hours
Procedure: Both in vitro and ex vivo permeation was measured for the following formulation. […]
Exemplary formulations were evaluated including Formulations 1-3, with API loading from 2.5-10% w/w.
as §1, §2

[9] = cited from earlier work
[10] = tested on: Granzyme B; conditions: donors 4-6, from 100 μg/ml, versus vehicle control
Procedure: NK cells were cultured with the NK activation beads for two days at 37° C. in the presence of 5% CO2. […] Samples were then treated with eBioscience Intracellular Fixation & Permeabilization Buffer Set to allow staining of intracellular granzyme B. Marker expression was determined by flow cytometry and appropriate “Fluorescence-Minus-One controls” controls were used. Flow cytometry data was analysed using FlowJo analysis software and data was graphed using Graph Pad Prism.
CD56+ cells were isolated from three donor buffy coats by magnetic separation. […] Next, the effect of compound addition at different timepoints and doses, following either optimal or suboptimal NK activation was determined by measuring expression of the activation markers CD25, CD69 and Granzyme B on NK cells. […] Treatment was administered at 0, 6, 24 and 30 hours. The controls were 200 nM Cortisol and 500 nM Deuruxolitinib (Jak inhibitor).

PK parameters in plasma, intact skin versus abraded skin [1]: no significant difference | permeation through buccal tissue versus porcine ear [2]: reduced dipivefrin permeation | duration of high exposure in dermis and epidermis ([3]; 30 mg/cm2, 7, 10 and 12% BSA): more than 6 hours | systemic exposure ([3]; high body surface area coverage): no systemic exposure | duration of epinephrine exposure [4]: > 1 h | in vitro release from the topical gel matrix (permeation and flux) [6]: Rapid release | AQST-108 plasma concentrations [7]: No AQST-108 plasma concentrations | systemic epinephrine concentrations [7]: within normal physiologic range
Compound: CNC[C@H](O)c1ccc(OC(=O)C(C)(C)C)c(OC(=O)C(C)(C)C)c1 [dipivefrin]
% inactivation relative to vehicle ([5]; 500 nM): 67% | % inactivation relative to vehicle ([5]; 1000 nM): 68% | % inactivation relative to vehicle ([5]; 2500 nM): 66% | suppression of activation of NK cells, Epinephrine and Dipivefrin combined for analysis ([5]; range of concentrations, exceeding IC50 at 70, 140 and 280 nM): effective suppression | modulation of NK cell activity ([5]; range of concentrations, exceeding IC50 at 140 and 280 nM): effectively deactivated NK cells | serious adverse events (SAE) or topical adverse events (AE) [7]: No serious adverse events | permeation as a function of API loading [8]: Dose proportional increases in permeation

Compound: CCOCCOCCO [Diethylene glycol monoethyl ether]
Log P (octanol:water) [9]: −0.43

Compound: dipivefrin
Median Fluorescence Intensity (MFI) of Granzyme B [10]: decreasing to some extent | reduction of NK cell activation as compared to control ([5]; doses up to 5 ng/mL, comparable to 20 nM Cortisol): about 12% | reduction in CD25+CD69+ NK cells compared to vehicle control ([5]; higher doses, donors 4-6): 5-12% | reduction in CD25+CD69+ NK cells compared to vehicle control ([5]; lower doses, donors 2-3): 7-12%
